Source: US20090311217A1, “3-SUBSTITUTED-1H-INDOLE COMPOUNDS, THEIR USE AS MTOR KINASE AND PI3 KINASE INHIBITORS, AND THEIR SYNTHESES” (priority 2008, published 2009)

Key:
Format in all cases: biochemical
PI3K-alpha = PI3K-alpha (Homo sapiens, UniProt P42336); test: PI3K-alpha fluorescence polarization assay; settings: read-out: PI3Kα Avg. IC50
PI3K-gamma = PI3K-gamma (Homo sapiens, UniProt P48736); test: PI3K-gamma fluorescence polarization assay; settings: PI3Kγ Avg. IC50
Method in brief: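 Reactions used 5 ng enzyme with 2.5 μM diC8-PI(4,5)P2 and 25 μM ATP in 5 mM HEPES pH 7, 2.5 mM MgCl2, run 1 h at 25° C. After an EDTA quench (10 mM), 100 nM GST-GRP1 PH domain and 5 nM BODIPY-TMR-IP4 were added and fluorescence polarization was read.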

human TOR = target: T1, human TOR (Homo sapiens, UniProt P42345); test: mTOR enzyme assay (DELFIA, His6-S6K substrate); settings: read-out: mTOR Kinase Avg. IC50
T1 construct: FLAG

Chain of PI3K-alpha (P42336 whole entry, species assumed): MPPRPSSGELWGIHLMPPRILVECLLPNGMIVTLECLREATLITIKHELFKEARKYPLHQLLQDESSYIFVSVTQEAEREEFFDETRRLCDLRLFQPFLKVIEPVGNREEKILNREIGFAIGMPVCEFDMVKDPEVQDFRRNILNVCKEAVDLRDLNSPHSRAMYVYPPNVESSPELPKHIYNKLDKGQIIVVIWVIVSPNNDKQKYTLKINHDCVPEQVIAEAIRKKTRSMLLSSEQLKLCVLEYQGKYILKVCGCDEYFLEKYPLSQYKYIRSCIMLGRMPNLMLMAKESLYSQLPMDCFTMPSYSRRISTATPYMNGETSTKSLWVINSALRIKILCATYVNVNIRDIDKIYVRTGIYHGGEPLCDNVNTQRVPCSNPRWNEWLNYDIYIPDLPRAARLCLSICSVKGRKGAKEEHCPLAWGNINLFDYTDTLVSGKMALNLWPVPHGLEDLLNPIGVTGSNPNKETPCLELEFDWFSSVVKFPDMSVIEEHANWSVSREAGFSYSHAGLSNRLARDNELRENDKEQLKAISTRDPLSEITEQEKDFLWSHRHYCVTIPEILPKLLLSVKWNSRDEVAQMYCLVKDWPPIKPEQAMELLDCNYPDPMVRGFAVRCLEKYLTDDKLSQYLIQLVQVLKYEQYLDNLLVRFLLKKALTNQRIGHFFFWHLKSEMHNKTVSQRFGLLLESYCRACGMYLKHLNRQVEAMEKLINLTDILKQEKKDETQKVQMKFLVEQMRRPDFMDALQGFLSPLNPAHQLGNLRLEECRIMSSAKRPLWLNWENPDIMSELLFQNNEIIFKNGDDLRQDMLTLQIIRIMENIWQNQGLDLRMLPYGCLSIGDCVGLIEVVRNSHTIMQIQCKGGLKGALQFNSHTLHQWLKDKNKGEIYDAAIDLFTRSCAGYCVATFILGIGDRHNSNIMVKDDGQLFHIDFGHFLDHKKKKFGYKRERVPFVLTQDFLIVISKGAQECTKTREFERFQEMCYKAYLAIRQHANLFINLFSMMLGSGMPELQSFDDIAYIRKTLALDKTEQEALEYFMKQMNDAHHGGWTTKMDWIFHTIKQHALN
Chain of PI3K-alpha (P27986 whole entry partner, species assumed): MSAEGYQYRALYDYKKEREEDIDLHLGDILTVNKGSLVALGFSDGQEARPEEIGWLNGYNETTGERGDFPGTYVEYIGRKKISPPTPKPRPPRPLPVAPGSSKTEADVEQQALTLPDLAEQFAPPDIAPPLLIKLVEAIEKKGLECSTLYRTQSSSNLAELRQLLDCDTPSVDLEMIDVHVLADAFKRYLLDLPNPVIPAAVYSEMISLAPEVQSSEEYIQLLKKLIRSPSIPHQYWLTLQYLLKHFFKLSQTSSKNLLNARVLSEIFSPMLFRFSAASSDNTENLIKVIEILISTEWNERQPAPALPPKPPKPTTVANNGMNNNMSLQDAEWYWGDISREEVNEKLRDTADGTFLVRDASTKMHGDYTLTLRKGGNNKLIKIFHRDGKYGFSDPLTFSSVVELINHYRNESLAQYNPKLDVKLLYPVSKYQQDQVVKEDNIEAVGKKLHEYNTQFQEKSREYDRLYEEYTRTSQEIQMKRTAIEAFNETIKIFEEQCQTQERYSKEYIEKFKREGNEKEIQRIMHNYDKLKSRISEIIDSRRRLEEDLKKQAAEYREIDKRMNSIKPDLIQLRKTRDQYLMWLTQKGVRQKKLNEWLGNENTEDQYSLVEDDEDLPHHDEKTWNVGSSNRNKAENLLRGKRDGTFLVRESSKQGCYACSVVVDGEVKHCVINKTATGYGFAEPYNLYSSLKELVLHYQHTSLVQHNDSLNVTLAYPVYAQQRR
Chain of PI3K-gamma (P48736 whole entry, species assumed, the tested form may be a part): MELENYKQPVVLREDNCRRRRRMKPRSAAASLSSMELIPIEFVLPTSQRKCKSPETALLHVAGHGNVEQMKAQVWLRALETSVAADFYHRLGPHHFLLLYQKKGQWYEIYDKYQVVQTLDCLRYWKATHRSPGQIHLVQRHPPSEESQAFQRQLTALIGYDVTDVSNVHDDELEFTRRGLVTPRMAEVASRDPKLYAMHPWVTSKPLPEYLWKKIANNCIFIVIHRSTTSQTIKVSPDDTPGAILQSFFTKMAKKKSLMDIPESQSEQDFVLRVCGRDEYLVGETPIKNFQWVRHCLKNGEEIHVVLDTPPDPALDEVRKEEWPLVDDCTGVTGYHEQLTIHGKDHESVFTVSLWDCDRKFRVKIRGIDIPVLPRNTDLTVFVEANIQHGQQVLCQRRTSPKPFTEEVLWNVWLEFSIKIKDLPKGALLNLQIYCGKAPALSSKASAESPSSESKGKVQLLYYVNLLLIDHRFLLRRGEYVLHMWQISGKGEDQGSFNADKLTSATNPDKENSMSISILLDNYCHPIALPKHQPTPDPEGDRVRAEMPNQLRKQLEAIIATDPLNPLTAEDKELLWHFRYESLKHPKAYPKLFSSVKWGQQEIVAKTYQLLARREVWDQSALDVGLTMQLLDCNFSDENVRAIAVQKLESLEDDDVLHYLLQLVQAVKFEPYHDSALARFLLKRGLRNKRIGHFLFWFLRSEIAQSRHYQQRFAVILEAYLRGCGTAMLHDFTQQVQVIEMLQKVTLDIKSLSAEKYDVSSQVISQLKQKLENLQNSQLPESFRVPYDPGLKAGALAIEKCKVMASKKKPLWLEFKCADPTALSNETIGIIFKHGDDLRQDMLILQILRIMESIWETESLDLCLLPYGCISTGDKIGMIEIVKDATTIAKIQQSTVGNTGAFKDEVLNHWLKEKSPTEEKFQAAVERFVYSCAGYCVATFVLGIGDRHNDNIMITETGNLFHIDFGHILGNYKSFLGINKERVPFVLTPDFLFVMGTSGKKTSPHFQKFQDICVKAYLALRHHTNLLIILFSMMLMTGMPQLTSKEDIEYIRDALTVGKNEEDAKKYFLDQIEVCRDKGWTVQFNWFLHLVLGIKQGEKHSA

| SMILES | IC50 (PI3K-alpha) [nM] | IC50 (PI3K-gamma) [nM] | IC50 (human TOR) [nM] |
| --- | --- | --- | --- |
| COc1ccc2c(c1)c(/C=C1\Oc3ccc(NC(=O)Nc4ccc(N(C)C(=O)CCN(C)C)cc4)cc3C1=O)c(C)n2CCN1CCN(C)CC1 [Compound 695, N-[4-({[(2Z)-2-({5-methoxy-2-methyl-1-[2-(4-methylpiperazin-1-yl)ethyl]-1H-indol-3-yl}methylidene)-3-oxo-2,3-dihydro-1-benzofuran-5-yl]carbamoyl}amino)phenyl]-N,N3,N3-trimethyl-b-alaninamide] | 4 | > 5500 | 330 |
| COc1ccc2[nH]c(-c3c(C)nn(C)c3C)c(/C=C3\Oc4ccc(NC(=O)Nc5ccc(C(=O)N6CCC(N(C)C)C6)cc5)cc4C3=O)c2c1 (stereo not drawn) [Compound 697, 1-(4-{[3-(dimethylamino)pyrrolidin-1-yl]carbonyl}phenyl)-3-[(2Z)-2-{[5-methoxy-2-(1,3,5-trimethyl-1H-pyrazol-4-yl)-1H-indol-3-yl]methylidene}-3-oxo-2,3-dihydro-1-benzofuran-5-yl]urea] | 0.25 | 1.4 | 1 |
| COc1ccc2[nH]c(-c3c(C)nn(C)c3C)c(/C=C3\Oc4ccc(NC(=O)Nc5ccc(C(=O)N(C)C6CCN(C)C6)cc5)cc4C3=O)c2c1 (stereo not drawn) [Compound 698, 4-({[(2Z)-2-{[5-methoxy-2-(1,3,5-trimethyl-1H-pyrazol-4-yl)-1H-indol-3-yl]methylidene}-3-oxo-2,3-dihydro-1-benzofuran-5-yl]carbamoyl}amino)-N-methyl-N-(1-methylpyrrolidin-3-yl)benzamide] | 0.3 | 3 | 1 |
| CCN1CCN(C(=O)c2ccc(NC(=O)Nc3ccc4c(c3)C(=O)/C(=C/c3c(-c5c(C)nn(C)c5C)[nH]c5ccc(OC)cc35)O4)cc2)CC1 [Compound 699, 1-{4-[(4-ethylpiperazin-1-yl)carbonyl]phenyl}-3-[(2Z)-2-{[5-methoxy-2-(1,3,5-trimethyl-1H-pyrazol-4-yl)-1H-indol-3-yl]methylidene}-3-oxo-2,3-dihydro-1-benzofuran-5-yl]urea] | 0.4 | 3 | 5 |
| COc1ccc2[nH]c(-c3c(C)nn(C)c3C)c(/C=C3\Oc4ccc(NC(=O)Nc5ccc(C(=O)N6CCN(C(C)C)CC6)cc5)cc4C3=O)c2c1 [Compound 700, 1-[(2Z)-2-{[5-methoxy-2-(1,3,5-trimethyl-1H-pyrazol-4-yl)-1H-indol-3-yl]methylidene}-3-oxo-2,3-dihydro-1-benzofuran-5-yl]-3-(4-{[4-(1-methylethyl)piperazin-1-yl]carbonyl}phenyl)urea] | 0.4 | 3 | 2 |
| COc1ccc2[nH]c(-c3c(C)nn(C)c3C)c(/C=C3\Oc4ccc(NC(=O)Nc5ccc(C(=O)N(C)CCN6CCCC6)cc5)cc4C3=O)c2c1 [Compound 701, 4-({[(2Z)-2-{[5-methoxy-2-(1,3,5-trimethyl-1H-pyrazol-4-yl)-1H-indol-3-yl]methylidene}-3-oxo-2,3-dihydro-1-benzofuran-5-yl]carbamoyl}amino)-N-methyl-N-(2-pyrrolidin-1-ylethyl)benzamide] | 0.3 | 3 | 1 |
| COc1ccc2[nH]c(-c3c(C)nn(C)c3C)c(/C=C3\Oc4ccc(NC(=O)Nc5ccc(C(=O)N6CCC(N(C)C)CC6)cc5)cc4C3=O)c2c1 [Compound 702, 1-(4-{[4-(dimethylamino)piperidin-1-yl]carbonyl}phenyl)-3-[(2Z)-2-{[5-methoxy-2-(1,3,5-trimethyl-1H-pyrazol-4-yl)-1H-indol-3-yl]methylidene}-3-oxo-2,3-dihydro-1-benzofuran-5-yl]urea] | 0.3 | 3 | 1 |
| CNC(=O)Nc1ccc2c(c1)C(=O)/C(=C/c1c(-c3cnn(CC(C)C)c3)[nH]c3ccc(OC)cc13)O2 [Compound 706, 1-[(2Z)-2-({5-methoxy-2-[1-(2-methylpropyl)-1H-pyrazol-4-yl]-1H-indol-3-yl}methylidene)-3-oxo-2,3-dihydro-1-benzofuran-5-yl]-3-methylurea] | 1.3 | 10 | 10 |

Second part, the molecule after the results:

| IC50 (PI3K-alpha) [nM] | IC50 (PI3K-gamma) [nM] | IC50 (human TOR) [nM] | SMILES |
| --- | --- | --- | --- |
| 3 | 48 | 5 | COc1ccc2[nH]c(-c3c(C)nn(C)c3C)c(/C=C3\Oc4ccc(NC(=O)Nc5ccc(N(C)C(=O)CCN(C)C)cc5)cc4C3=O)c2c1 [Compound 696, N-(4-{[(2-{[5-methoxy-2-(1,3,5-trimethyl-1H-pyrazol-4-yl)-1H-indol-3-yl]methylidene}-3-oxo-2,3-dihydro-1-benzofuran-5-yl)carbamoyl]amino}phenyl)-N,N3,N3-trimethyl-b-alaninamide] |
| 0.3 | 2.5 | 3 | COc1ccc2[nH]c(-c3c(C)nn(C)c3C)c(/C=C3\Oc4ccc(NC(=O)Nc5ccc(C(=O)N6CCN(C)C(C)C6)cc5)cc4C3=O)c2c1 (stereo not drawn) [Compound 703, 1-{4-[(3,4-dimethylpiperazin-1-yl)carbonyl]phenyl}-3-[(2Z)-2-{[5-methoxy-2-(1,3,5-trimethyl-1H-pyrazol-4-yl)-1H-indol-3-yl]methylidene}-3-oxo-2,3-dihydro-1-benzofuran-5-yl]urea] |
| 0.6 | 4 | 4 | COc1ccc2[nH]c(-c3c(C)nn(C)c3C)c(/C=C3\Oc4ccc(NC(=O)Nc5ccc(C(=O)N(C)C)cc5)cc4C3=O)c2c1 [Compound 704, 4-({[(2Z)-2-{[5-methoxy-2-(1,3,5-trimethyl-1H-pyrazol-4-yl)-1H-indol-3-yl]methylidene}-3-oxo-2,3-dihydro-1-benzofuran-5-yl]carbamoyl}amino)-N,N-dimethylbenzamide] |
| 5.5 | 25.5 | 26 | CNC(=O)Nc1ccc2c(c1)C(=O)/C(=C/c1c(-c3c(C)nn(CCN(C)C)c3C)[nH]c3ccc(OC)cc13)O2 [Compound 705, 1-{(2Z)-2-[(2-{1-[2-(dimethylamino)ethyl]-3,5-dimethyl-1H-pyrazol-4-yl}-5-methoxy-1H-indol-3-yl)methylidene]-3-oxo-2,3-dihydro-1-benzofuran-5-yl}-3-methylurea] |
| 8 | 123 | 85 | COc1ccc2[nH]c(-c3c(C)nn(C)c3C)c(/C=C3\Oc4ccc(NC(=O)Nc5cccc(C(=O)N(C)CCN(C)C)c5)cc4C3=O)c2c1 [Compound 707, N-[2-(dimethylamino)ethyl]-3-({[(2Z)-2-{[5-methoxy-2-(1,3,5-trimethyl-1H-pyrazol-4-yl)-1H-indol-3-yl]methylidene}-3-oxo-2,3-dihydro-1-benzofuran-5-yl]carbamoyl}amino)-N-methylbenzamide] |
| 42 | 351 | 115 | COc1ccc2[nH]c(-c3c(C)nn(C)c3C)c(/C=C3\Oc4ccc(NC(=O)Nc5cccc(C(=O)N(C)CCCN(C)C)c5)cc4C3=O)c2c1 [Compound 708, N-[3-(dimethylamino)propyl]-3-({[(2Z)-2-{[5-methoxy-2-(1,3,5-trimethyl-1H-pyrazol-4-yl)-1H-indol-3-yl]methylidene}-3-oxo-2,3-dihydro-1-benzofuran-5-yl]carbamoyl}amino)-N-methylbenzamide] |
| 47 | 248 | 43 | CNC(=O)Nc1ccc2c(c1)C(=O)/C(=C/c1c(-c3c(C)nn(CCOC)c3C)[nH]c3ccc(OC)cc13)O2 [Compound 709, 1-[(2Z)-2-({5-methoxy-2-[1-(2-methoxyethyl)-3,5-dimethyl-1H-pyrazol-4-yl]-1H-indol-3-yl}methylidene)-3-oxo-2,3-dihydro-1-benzofuran-5-yl]-3-methylurea] |
| 0.4 | 2.25 | < 1 | COc1ccc2[nH]c(-c3c(C)nn(C)c3C)c(/C=C3\Oc4ccc(NC(=O)Nc5ccc(C(=O)NCCN(C)C)cc5)cc4C3=O)c2c1 [Compound 711, N-[2-(dimethylamino)ethyl]-4-({[(2Z)-2-{[5-methoxy-2-(1,3,5-trimethyl-1H-pyrazol-4-yl)-1H-indol-3-yl]methylidene}-3-oxo-2,3-dihydro-1-benzofuran-5-yl]carbamoyl}amino)benzamide] |
| 23 | 246 | 240 | CNC(=O)Nc1ccc2c(c1)C(=O)/C(=C/c1c(-c3c(C)nn(C)c3C)[nH]c3c(OC)c(F)c(OC)cc13)O2 [Compound 712, 1-[(2Z)-2-{[6-fluoro-5,7-dimethoxy-2-(1,3,5-trimethyl-1H-pyrazol-4-yl)-1H-indol-3-yl]methylidene}-3-oxo-2,3-dihydro-1-benzofuran-5-yl]-3-methylurea] |
| 14 | 70.5 | 45 | CNC(=O)Nc1ccc2c(c1)C(=O)/C(=C/c1c(-c3c(C)nn(C)c3C)[nH]c3c(F)c(F)c(OC)cc13)O2 [Compound 713, 1-[(2Z)-2-{[6,7-difluoro-5-methoxy-2-(1,3,5-trimethyl-1H-pyrazol-4-yl)-1H-indol-3-yl]methylidene}-3-oxo-2,3-dihydro-1-benzofuran-5-yl]-3-methylurea] |
| 0.55 | 3.7 | < 1 | CNC(=O)Nc1ccc2c(c1)C(=O)/C(=C/c1c(-c3c(C)n[nH]c3C)[nH]c3c(F)cc(OC)cc13)O2 [Compound 714, 1-[(2Z)-2-{[2-(3,5-dimethyl-1H-pyrazol-4-yl)-7-fluoro-5-methoxy-1H-indol-3-yl]methylidene}-3-oxo-2,3-dihydro-1-benzofuran-5-yl]-3-methylurea] |
| 0.5 | 2.55 | 1 | COc1cc(F)c2[nH]c(-c3c(C)nn(C)c3C)c(/C=C3\Oc4ccc(NC(=O)NCCN)cc4C3=O)c2c1 [Compound 715, 1-(2-aminoethyl)-3-[(2Z)-2-{[7-fluoro-5-methoxy-2-(1,3,5-trimethyl-1H-pyrazol-4-yl)-1H-indol-3-yl]methylidene}-3-oxo-2,3-dihydro-1-benzofuran-5-yl]urea] |
